The values that follow come from US20250388620A1, “EFFICIENT METHOD FOR MAKING HIGHLY PURIFIED 5’- CAPPED OLIGONUCLEOTIDES” (TriLink BioTechnologies, LLC, priority 2022, published 2025).

The subject of one test is HEK293 cells. Nature of the test: mWasabi fluorescence assay (protein expression of capped mRNA) in HEK293 cells. Format: cell-based. To be noted: mWasabi encoding mRNA capped with the cap analog, 24 hours post transfection, 12.5 ng mRNA per well. On the procedure:
(§1) Wasabi and FLuc mRNAs capped with cap analog ARCA, cap analog A-1, cap analog A-2, cap analog 3′OMe, or cap analog A-Control (see Table 2) were prepared as described in International Patent Publication Nos. WO2017053297 and WO2023147352 which are incorporated herein by reference in their entirety.
(§2) The IVT template was used to prepare mWasabi encoding mRNA (970 nucleotides) with cap analogs A-control, 3′OMe, A-1 or A-2 by in-vitro transcription. The mRNAs were purified prior to use in assays described below. Protein expression was measured by Allele Biotechnology in cell-based assays.
(§3) mWasabi Fluorescence Assay:
(§4) The day before transfection: cells were seeded as follows: • HEK293 cells: 6.25×10^4/cm^2 • HeLa cells: 3.125×10^4/cm^2 • The cells were dissociated with TrypLE • HEK293 cells were seeded in 96 well plates coated with Poly-D-Lysine (50 μL at 100 μg/mL per well). • HeLa cells were seeded in 96 well plates (no coating required). • The cells were seeded in 100 μL of growth media (Growth Media: DMEM+10% FBS supplemented with GlutaMAX and MEM Non-Essential Amino Acids).
(§5) The day of transfection: Opti-MEM and MessengerMax Transfection Reagent were allowed to reach room temperature. Two tubes were set up for each mRNA (i.e., for each cap analog). […]
(§6) mWasabi fluorescent expression was quantified using Cytation 10 after 24 hours.

In a further test the test system is HeLa cells. The test is described as follows: mWasabi fluorescence assay (protein expression of capped mRNA) in HeLa cells. Format: cell-based. To be noted: mWasabi encoding mRNA capped with the cap analog, 24 hours post transfection, 12.5 ng mRNA per well. On the procedure: as §1, §2, §3, §4, §5, §6

As for “^N7-(4-chlorobenzyl)G3′OMeppp^m6A2′OMepG [Compound A-1]”, the “fluorescence intensity (i.e., protein expression levels)” value was “comparable to that of mRNA capped with Cap 3′OMe or mRNA capped with A-control, and much higher than that of mRNA capped with ARCA cap” in the test on HEK293 cells; “comparable to that of mRNA capped with Cap 3′OMe or mRNA capped with A-control, and much higher than that of mRNA capped with ARCA cap” in the test on HeLa cells.
As to “^m7, N2-butylG3′OMeppp^m6A2′OMepG [Compound A-2]”, the “fluorescence intensity (i.e., protein expression levels)” value in the test on HEK293 cells is “comparable to that of mRNA capped with Cap 3′OMe or mRNA capped with A-control, and much higher than that of mRNA capped with ARCA cap”; in the test with HeLa cells, “comparable to that of mRNA capped with Cap 3′OMe or mRNA capped with A-control, and much higher than that of mRNA capped with ARCA cap”.
